Among the data in article PMC8802628, “Selective activation of PFKL suppresses the phagocytic oxidative burst” (Cell, 2021) are log2FC values, retold here.

In this assay the target is T1, 14-3-3 protein beta/alpha (YWHAB) (Homo sapiens, UniProt P31946).
T1 construct: endogenous in cells; host or cells: human blood leukocytes, labelled live
The assay is described as follows: Photoaffinity labeling pull-down (Data S1). The class given is binding. The conditions noted are these: Comparison PALP1_NA11-PALP1. How it is done:
Buffy coats (100 mL) were diluted with ice-cold water (540 mL) for 30 s to lyse red blood cells. Following addition of 10 x HBSS buffer (50 mL) leukocytes were pelleted for 3 min at 300 x g, then washed twice in D-PBS and resuspended in RPMI medium. Cells (2 × 10^7) were plated on 15-cm dishes in DMSO vehicle, 1 μM PALP1 or 1 μM PALP6 for 30 min at 37°C. For competition, 10 μM NA-11 was added for 15 min, and then 1 μM PALP1 was added for an additional 30 min. To crosslink the photoaffinity probe, cells were UV-irradiated (High intensity mercury spot lamp, 100W, 365 nm, UVP) in RPMI for 5 min on ice. Cells were lysed in 200 μL 10 mM Tris pH 7.5, 150 mM NaCl, 1% NP-40, 2.5 mM MgCl2, 0.5 mM CaCl2, 2% glycerol, 10 μg/mL DNase-I, and 1 x EDTA-free Protease inhibitor cocktail. Lysates from 5 plates for each condition were pooled and incubate 10 min on ice.
Biotin-DADPS tagging, biotin-streptavidin affinity purification, and on-bead digestion were performed as described ([Hewings et al., 2018]). Briefly, lysates were cleared by centrifugation and the lysate concentration adjusted to 5 mg/mL. Streptavidin Ultralink Resin (100 μL of 50% slurry, Pierce) was washed twice with PBS and mixed with 1 mL of lysate for 30 min at room temperature. […]
For the classical TPP, quantitative data from each temperature were used to generate a thermal titration curve and calculate a melting point. […]

T1 sequence (P31946 whole entry): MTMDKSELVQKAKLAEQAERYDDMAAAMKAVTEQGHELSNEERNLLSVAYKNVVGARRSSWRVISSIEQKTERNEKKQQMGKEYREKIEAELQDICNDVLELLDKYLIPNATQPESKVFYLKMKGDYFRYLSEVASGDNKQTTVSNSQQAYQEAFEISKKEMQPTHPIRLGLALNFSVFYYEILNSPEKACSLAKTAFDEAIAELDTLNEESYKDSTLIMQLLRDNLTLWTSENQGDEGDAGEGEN

In the case of `CC(=O)Nc1ccc2c(c1)OCc1cc(-c3ccccc3C#CCCCO)nn1C2` [NA-11], the log2FC is 0.13.
